{"source": "patent US6399089B1", "about": "“Compositions and methods for regulating metabolism and balancing body weight” (priority 2000, dated 2002)", "origin": "cited, not measured here", "key": {"[1]": {"conditions": "200 mcg, after 26 weeks, obese patients, very low calorie diet"}, "[2]": {"conditions": "rats"}}, "note": "Where two headings read alike, the source gives them in different places."}
{"molecule": "CC(=O)Oc1ccccc1C(=O)O", "note": "[aspirin]", "values": [{"measurement": "thermogenic response of ephedrine during a meal", "setting": "lean women", "result": "not lean women"}, {"measurement": "thermogenic response of ephedrine during a meal", "setting": "obese women", "result": "potentiated"}]}
{"molecule": "chromium picolinate", "values": [{"measurement": "lean body mass", "setting": "[1]", "result": "increased lean body mass"}]}
{"molecule": "CN[C@@H](C)[C@H](O)c1ccccc1", "note": "[ephedrine]", "values": [{"measurement": "increase in energy expenditure", "setting": "[2]", "result": 9, "unit": "%"}, {"measurement": "reduction of body fat", "setting": "[2]", "result": 50, "unit": "%"}, {"measurement": "reduction of body weight", "setting": "[2]", "result": 18, "unit": "%"}]}
